Test system: human myeloma cell line MM.1S
Assay: SILAC acetylated-lysine peptide profiling, HDAC inhibitor vs DMSO (light/heavy ratio)
Format: cell-based
From the text: An embodiment of the invention comprises utilizing the SILAC method in order to quantitate changes in protein expression between two or more populations of cells. The SILAC method is a technique based on mass spectrometry that detects differences in protein abundance among samples using non-radioactive isotopic labeling. The SILAC method is known in the art, and described in detail in Ong et al., “Stable Isotope Labeling by Amino Acids in Cell Culture, SILAC, as a Simple and Accurate Approach to Expression Proteomics”, Molecular & Cellular Proteomics, vol. 1, pp. 376-386 (2002), which is incorporated herein by reference in its entirety.
Briefly, the SILAC method involves growing two populations of cells in cell culture. The first population of cells is grown in growth media containing normal amino acids (“normal media”). The second population of cells is grown in media lacking a standard essential amino acid (such as lysine), but is then supplemented with a non-radioactive, isotopically labeled form of that essential amino acid (such as lysine labeled with ^13C atoms, rather than normal ^12C atoms), which is called “heavy media”. When the two populations of cells are each growing in the medium, they incorporate the amino acids into all of their proteins. The growth of cells maintained in the heavy media is no different from that in normal media. All peptides containing the heavy amino acids are heavier than their normal counterparts. The cells from each of the two populations of cells are lysed. The lysates from each of the two cell populations are then combined. The combined cell lysates are then analyzed by mass spectrometry. Pairs of chemically identical peptides of different stable isotope composition can be differentiated in a mass spectrometer due to their difference in mass. The ratio of peak intensities in the mass spectrum for such peptide pairs reflects the abundance ratio for the two proteins.
This example describes SILAC studies that were performed to compare the effects of three different HDAC inhibitors (Compound A, Compound B, and tubastatin A) to a control on a human multiple myeloma cell line. The HDAC inhibitors were also compared amongst themselves to determine differences in their effects.
A human myeloma cell line MM.1S was grown using either ^12C (light) or ^13C (heavy) lysine containing culture medium. The “heavy” cells were treated with DMSO as the control, and the “light” cells were treated with a single HDAC inhibitor at 37° C. for 6 hours. The heavy and light cells were lysed, and the lysates were mixed in 1:1 ratio and digested with the protease trypsin. The acetylated lysine containing peptides (due to the action of the HDAC inhibitor) in the digested peptide pool were captured by a non-specific anti-acetylated lysine antibody cocktail (the antibodies identify both light and heavy acetylated peptides), and subjected to mass spectrometry analysis in order to identify thousands of individual peptides.
Thousands of peptides were identified in pairs (^12C and ^13C) due to their known mass differences. The amino acid sequence and quantitative ratio (Light/Heavy) of a given peptide in two differentially treated cell lysates were then determined and annotated with their possible protein (gene) sources.
As stated above, three HDAC inhibitors (Compound A, Compound B, and Tubastatin A) were used. Thus, the SILAC method was performed three times, with a different HDAC inhibitor compared to a control each time. Accordingly, there are three pairs of quantitative data in the table below, i.e., Compound A:DMSO, Compound B:DMSO, and Tubastatin A:DMSO. A cut-off of 1.30 fold of change (increase or decrease) was then used to determine “changed” or “+” in the table, and any peptides with a fold of change less than 1.3 fold were determined to be “unchanged” or “0” in the table. Those peptides that were not identified were marked as “NA” in the table. […]

O=C(NO)c1cnc(NC2(c3cccc(F)c3)CCCCC2)nc1 [Compound B, 2-((1-(3-fluorophenyl)cyclohexyl)amino)-N-hydroxypyrimidine-5-carboxamide]
L/H ratio of acetylated peptide ([…](ac)HLSASQK (SEQ ID NO: 381), Cytochrome c oxidase subunit 4 isoform 1 mitochondrial [53], COX4I1): −0.63 log 2
light to heavy ratio (L/H ratio) of acetylated peptide, log 2 scale ([…](ac)IFK (SEQ ID NO: 157), cDNA FLJ59630 highly similar to Growth hormone-inducible transmembrane protein [76], GHITM): 0.00
light to heavy ratio (L/H ratio) of acetylated peptide, log 2 scale ([…](ac)IVIQK (SEQ ID NO: 165), Isoform A1-B of Heterogeneous nuclear ribonucleoprotein A1 [161], HNRNPA1): 0.00
light to heavy ratio (L/H ratio) of acetylated peptide, log 2 scale ([…](ac)K (SEQ ID NO: 242), Vimentin [235], VIM): 0.00
L/H ratio of acetylated peptide ([…](ac)K (SEQ ID NO: 427), Profilin-1 [126], PFN1): 0.58 log 2
light to heavy ratio (L/H ratio) of acetylated peptide, log 2 scale ([…](ac)LFR (SEQ ID NO: 136), B-cell receptor-associated protein 31 [95], BCAP31): 0.00
L/H ratio of acetylated peptide ([…](ac)LHIVK (SEQ ID NO: 378), Chloride intracellular channel protein 4 [194], CLIC4): 0.51 log 2
light to heavy ratio (L/H ratio) of acetylated peptide, log 2 scale ([…](ac)LLPHIR (SEQ ID NO: 208), 60S acidic ribosomal protein P0 [77], RPLP0): 0.00
L/H ratio of acetylated peptide ([…](ac)VNSK (SEQ ID NO: 430), Isoform 1 of Inorganic pyrophosphatase 2 mitochondrial [69], PPA2): 0.91 log 2
L/H ratio of acetylated peptide ([…](ac)WK (SEQ ID NO: 453), Lupus La protein [328], SSB): 0.57 log 2
L/H ratio of acetylated peptide ([…](ac)YLNFVK (SEQ ID NO: 405), Endoplasmin [428], HSP90B1): 0.77 log 2
L/H ratio of acetylated peptide ([…](ac)YQEALAK (SEQ ID NO: 450), Superoxide dismutase [Mn] mitochondrial [68], SOD2): −0.67 log 2
light to heavy ratio (L/H ratio) of acetylated peptide, log 2 scale ([…](ac)[…] (SEQ ID NO: 132), ATP synthase subunit b mitochondrial [221], ATP5F1): 0.00
light to heavy ratio (L/H ratio) of acetylated peptide, log 2 scale ([…](ac)[…] (SEQ ID NO: 139), cDNA FLJ55574 highly similar to Calnexin [217], CANX): 0.00
light to heavy ratio (L/H ratio) of acetylated peptide, log 2 scale ([…](ac)[…] (SEQ ID NO: 145), Isoform 1 of Cellular nucleic acid-binding protein [118], CNBP): 0.00
L/H ratio of acetylated peptide ([…](ac)[…] (SEQ ID NO: 372), Calreticulin [98], CALR): −0.43 log 2
L/H ratio of acetylated peptide ([…](ac)[…] (SEQ ID NO: 387), D-dopachrome decarboxylase [87], DDT): −0.44 log 2
L/H ratio of acetylated peptide ([…](ac)[…] (SEQ ID NO: 399), Guanine nucleotide-binding protein subunit beta-2-like 1 [139], GNB2L1): 0.54 log 2
L/H ratio of acetylated peptide ([…](ac)[…] (SEQ ID NO: 408), Isoform 1 of Isocitrate dehydro-genase [NAD] subunit alpha mitochondrial [77], IDH3A): −0.44 log 2
L/H ratio of acetylated peptide ([…](ac)[…] (SEQ ID NO: 455), Isoform 1 of Translocon-associated protein subunit alpha [102], SSR1): −0.88 log 2
L/H ratio of acetylated peptide ([…](ac)[…] (SEQ ID NO: 466), Voltage-dependent anion-selective channel protein 1 [266], VDAC1): −0.66 log 2
L/H ratio of acetylated peptide ([…](ac)[…] (SEQ ID NO: 469), Isoform 1 of Voltage-dependent anion-selective channel protein 3 [266], VDAC3): −0.71 log 2
light to heavy ratio (L/H ratio) of acetylated peptide YDGK(ac)WEVEEMK (SEQ ID NO: 274) (cDNA FLJ55574 highly similar to Calnexin [138], CANX, drug:DMSO): 0.00 log 2
light to heavy ratio (L/H ratio) of acetylated peptide LNK(ac)PFLFDTK (SEQ ID NO: 327) (cDNA FLJ55574 highly similar to Calnexin [172], CANX, drug:DMSO): 0.43 log 2
light to heavy ratio (L/H ratio) of acetylated peptide NFK(ac)SISK (SEQ ID NO: 356) (cDNA FLJ56425 highly similar to Very-long-chain specific acyl-CoAdehydrogenase mitochondrial [681], ACADVL, drug:DMSO): 0.44 log 2
light to heavy ratio (L/H ratio) of acetylated peptide LPSSTK(ac)SGWPR (SEQ ID NO: 500) (cDNA FLJ75110 highly similar to Homo sapiens PHD finger protein 15 (PHF15) mRNA [38], gene PHF15, inhibitor:DMSO): 0.00 log 2
light to heavy ratio (L/H ratio) of acetylated peptide IINEVSK(ac)[…] (SEQ ID NO: 341) (cDNA FLJ77177 highly similar to Homo sapiens arginine-rich mutated in early stage tumors (ARMET) mRNA [97], MANF, drug:DMSO): −0.58 log 2
light to heavy ratio (L/H ratio) of acetylated peptide TNVPVK(ac)LFAR (SEQ ID NO: 348) (cDNA FLJ77422 highly similar to Homo sapiens RNA binding protein autoantigenic (hnRNP-associated with lethal yellow homolog (mouse)) transcript variant 1 mRNA (Fragment) [165], RALY, drug:DMSO): 0.39 log 2
light to heavy ratio (L/H ratio) of acetylated peptide EIAQEFK(ac)TDLR (SEQ ID NO: 337) (histone cluster 2 H3 pseudogene 2 [80], HIST2H3PS2, drug:DMSO): −0.49 log 2
light to heavy ratio (L/H ratio) of acetylated peptide SK(ac)SDPIMLLK (SEQ ID NO: 255) (pyruvate dehydrogenase E1 component subunit alpha somatic form mitochondrial isoform 2 precursor [351], PDHA1, drug:DMSO): 0.00 log 2
light to heavy ratio (L/H ratio) of acetylated peptide VTNLLMLK(ac)GK (SEQ ID NO: 350) (regulator of differentiation 1 isoform 2 [64], ROD1, drug:DMSO): 0.83 log 2
light to heavy ratio (L/H ratio) of acetylated peptide LTSLNVK(ac)YNNDK (SEQ ID NO: 590) (regulator of differentiation 1 isoform 2 [236], gene ROD1, inhibitor:DMSO): 0.00 log 2
light to heavy ratio (L/H ratio) of acetylated peptide GWLK(ac)[…] (SEQ ID NO: 278) (triosephosphate isomerase isoform 2 [231], TPI1, TPI1P1, drug:DMSO): 0.00 log 2

— US20140357512A1, “HISTONE DEACETYLASE (HDAC) BIOMARKERS IN MULTIPLE MYELOMA” (priority 2013, published 2014)
